Assay results published in publication PMC6792352, “Limited Chemical Structural Diversity Found to Modulate Thyroid Hormone Receptor in the Tox21 Chemical Library” (Environmental Health Perspectives, 2019).
Structures can show the parent of a compound that is named as a salt.

assay: in vitro; conditions: rat, gh3-tre-luc cells, AC50 (uM) modified / 1000

| SMILES | CC50 at 24 h |
| --- | --- |
| O=NN1CCNCC1 [N-Nitrosopiperazine] | > 100 µM |
| Cc1cc(=O)nc(C(C)C)[nH]1 [2-Isopropyl-6-methyl-4-pyrimidone] | > 90 µM |
| COc1nc(C)nc(NC(=O)NS(=O)(=O)c2ccccc2OCCCl)n1 [Triasulfuron] | > 90 µM |
| Brc1c(NC2=NCCN2)ccc2nccnc12 [Brimonidine] | > 50 µM |
| C=C1C[C@H]2[C@@H]3CCC4=CC(=O)C=C[C@]4(C)[C@@]3(F)[C@@H](O)C[C@]2(C)[C@@]1(O)C(=O)COC(C)=O [Fluprednidene acetate] | > 50 µM |
| SCCCCCCCCS [1,8-Octanedithiol] | > 90 µM |
| O=C(CCCN1CCN(c2ccccn2)CC1)c1ccc(F)cc1 [Azaperone] | > 50 µM |
| O=c1ccn(C2OC(COP(=O)(O)OC3C(CO)OC(n4ccc(=O)[nH]c4=O)C3O)C(O)C2O)c(=O)[nH]1 (stereo not shown) [Uricase from Bacillus fastidiosus] | > 50 µM |
| CC(C)CCCC(C)(C)O [2,6-Dimethyl-2-heptanol] | > 90 µM |
| C[N+](C)(C)CC(O)CCl (stereo not shown) [Dextrosil] | > 90 µM |
| NC(=O)c1cn(Cc2c(F)cccc2F)nn1 [Rufinamide] | > 50 µM |
| COc1cc(-c2nc(NC(=O)c3cc4cc(C)cc(C)c4n3CC(=O)O)sc2CCC2CCCCC2)c(OC)cc1Cl [SR146131 trifluoroacetate (1:1)] | 12.1 µM |
| O=C(Cn1cnnn1)N[C@@H]1C(=O)N2C(C(=O)O)=C(CSc3nncs3)CS[C@H]12 [Ceftezole sodium] | > 50 µM |
| CCCCN1CCCC[C@H]1C(=O)Nc1c(C)cccc1C [Levobupivacaine hydrochloride] | > 50 µM |
| CO/N=C(/C1=NOCCO1)c1ccccc1Oc1ncnc(Oc2ccccc2Cl)c1F [Fluoxastrobin] | 32.7 µM |
| Cc1cccc(C(=O)O)c1[N+](=O)[O-] [3-Methyl-2-nitrobenzoic acid] | > 90 µM |
| CCC(C)C(=O)OCCc1ccccc1 (stereo not shown) [2-Phenylethyl 2-methylbutanoate] | > 90 µM |
| C=CC(=C)CCCC(C)(C)OC(C)=O [2-methyl-6-methylideneoct-7-en-2-yl acetate] | > 90 µM |
| CN(C)c1ccc(N(C)C)cc1 [N,N,N',N'-Tetramethyl-p-phenylenediamine] | 58.6 µM |
| N#Cc1c(Cl)cccc1Cl [Dichlobenil] | > 90 µM |
| c1ccc2scnc2c1 [Benzothiazole] | > 90 µM |
| Nc1cc(S(=O)(=O)O)ccc1S(=O)(=O)O [2-Aminobenzene-1,4-disulfonic acid] | > 90 µM |
| Nc1cc(Cl)cc(S(=O)(=O)O)c1O [6-Amino-4-chloro-1-phenol-2-sulfonic acid] | > 90 µM |
| CO[Si](OC)(OC)c1ccccc1 [Trimethoxyphenylsilane] | > 90 µM |
| CCCCCCCCCCCCCCC [Pentadecane] | > 90 µM |

| SMILES | CC50 at 24 h |
| --- | --- |
| CC[C@H](C)C(=O)O[C@H]1C[C@H](O)C=C2C=C[C@H](C)[C@H](CC[C@@H](O)C[C@@H](O)CC(=O)O)[C@H]21 [Pravastatin sodium] | > 90 µM |
| OCCCc1ccccc1 [3-Phenyl-1-propanol] | > 50 µM |
| NCCNC(=O)c1ccc(Cl)cn1 [Lazabemide hydrochloride] | > 50 µM |
| CCCCCCCCCC[N+](C)(C)[O-] [N,N-Dimethyldecylamine oxide] | > 90 µM |
| OC[C@@H](O)[C@H](O)[C@@H](O)[C@@H](O)CO [L-Glucitol] | > 90 µM |
| COc1ccc(Br)c(C)c1 [1-Bromo-4-methoxy-2-methylbenzene] | > 90 µM |
| CCNC(=O)NC(=O)/C(C#N)=N/OC [Cymoxanil] | > 90 µM |
| OCC1CCC(CO)CC1 (stereo not shown) [1,4-Cyclohexanedimethanol] | > 90 µM |
| CC(C(O)c1ccc(O)cc1)N1CCC(Cc2ccccc2)CC1 (stereo not shown) [Ifenprodil] | 19.6 µM |
| C#C[C@]1(OC(=O)CCCCCC)CC[C@H]2[C@@H]3CCC4=CC(=O)CC[C@@H]4[C@H]3CC[C@@]21C [Noristerat] | 10.7 µM |
| O=C(Cl)/C=C/C(=O)Cl [Fumaryl chloride] | > 90 µM |
| CCCCCCCC/C=C\CCCCCCCC(=O)O [Oleic acid] | > 90 µM |
| O=C(O)c1cc2ccccc2nc1C(=O)O [2,3-Quinolinedicarboxylic acid] | > 90 µM |
| CC(N)CCCC(C)(C)O (stereo not shown) [Heptaminol hydrochloride] | > 50 µM |
| COc1cc(C(=O)N2CCCCCCC2)cc(OC)c1OC [Trocimine] | > 50 µM |
| N=C(N)NCCC[C@H](NC(=O)[C@@H]1CCCN1C(=O)[C@@H]1CSSCCC(=O)N[C@@H](Cc2ccc(O)cc2)C(=O)N[C@@H](Cc2ccccc2)C(=O)N[C@@H](CCC(N)=O)C(=O)N[C@@H](CC(N)=O)C(=O)N1)C(=O)NCC(N)=O [Desmopressin acetate] | > 50 µM |
| CCCCOC(=O)c1ccccc1C(=O)O [Monobutyl phthalate] | > 90 µM |
| O=S(=O)(O)c1ccccc1 [Benzenesulfonic acid] | > 90 µM |
| CC(C)CCCCCCN [Isononanamine] | > 90 µM |
| CC1CCCCC1NC(=O)Nc1ccccc1 (stereo not shown) [Siduron] | > 90 µM |
| CCNc1cccc(C)c1 [N-Ethyl-3-methylaniline] | > 90 µM |
| CC1CCCCN1CCCOC(=O)c1ccccc1 (stereo not shown) [Piperocaine hydrochloride] | > 50 µM |
| CCC(CC)(CC(=O)Nc1cccc(/C=C/c2nc(C3CCC3)cs2)c1)C(=O)O [Cinalukast] | > 50 µM |
| CC(C)(O)c1ccc(C(C)(C)O)cc1 [1,4-Bis(2-hydroxy-2-propyl)benzene] | > 90 µM |
| C/C(=C(\CCOP(=O)(O)O)SC(=O)c1ccccc1)N(C=O)Cc1cnc(C)nc1N [Benfotiamine] | > 20 µM |

| SMILES | CC50 at 24 h |
| --- | --- |
| Nc1nc(-c2ccccc2)cs1 [2-Amino-4-phenylthiazole hydrobromide hydrate] | > 90 µM |
| Cc1cc(C)c(NC(=O)C[C@H](CC(=O)O)c2cccc3ccccc23)c(C(=O)N2CCC3(CCCC3)CC2)c1 [Itriglumide sodium] | 26.9 µM |
| COCCOCCOC [Diethylene glycol dimethyl ether] | > 90 µM |
| OCCCCCCCCCCCCBr [12-Bromo-1-dodecanol] | > 90 µM |
| CC1=CC[C@H]2C[C@@H]1C2(C)C [(-)-alpha-Pinene] | > 90 µM |
| C=CCCCCCCCCCCC [1-Tridecene] | > 5 µM |
| OCc1cc(C(O)CNCCCCCCOCCCCc2ccccc2)ccc1O (stereo not shown) [Salmeterol] | 10.6 µM |
| O=C1C(N(CO)C(=O)NCO)N(CO)C(=O)N1CO (stereo not shown) [Diazolidinyl urea] | > 90 µM |
| Cc1cccc([N+](=O)[O-])c1C(=O)O [2-Methyl-6-nitrobenzoic acid] | > 90 µM |
| Cc1ccc(C(C)(C)c2ccc(C)cc2)cc1 [2,2-Di-4-tolylpropane] | > 50 µM |
| CCOC(=O)C(C)O (stereo not shown) [Ethyl lactate] | > 90 µM |
| CC(C)(CCC(=O)O)C(=O)O [2,2-Dimethylpentanedioic acid] | > 90 µM |
| c1ccc2c(CCC3CCNCC3)c[nH]c2c1 [Indalpine hydrochloride] | 18.8 µM |
| O=C(c1ccccc1O)c1ccccc1O [2,2'-Dihydroxybenzophenone] | > 90 µM |
| CCCCCCCCCCCC(=O)OCC [Ethyl dodecanoate] | > 90 µM |
| Cc1cc(C)cc(C(=O)OC2C[C@H]3CC[C@@H](C2)N3C)c1 (stereo partly shown) | 22.4 µM |
| Cc1cc2c(cc1C(F)(F)F)N(C(=O)Nc1ccc(Oc3cccnc3C)nc1)CC2 [SB243213A] | 69.4 µM |
| O=S(=O)(O)c1cccc(S(=O)(=O)O)c1 [Disodium benzene-1,3-disulfonate] | > 90 µM |
| N=C(N)c1ccc(OCCCOc2ccc(C(=N)N)cc2)cc1 [Propamidine] | > 50 µM |
| CCCCOCCOC(=O)COc1cc(Cl)c(Cl)cc1Cl [2,4,5-T-butotyl] | > 90 µM |
| Nc1cccc(N)n1 [2,6-Diaminopyridine] | > 90 µM |
| Brc1cc(Oc2cc(Br)c(Br)c(Br)c2Br)c(Br)c(Br)c1Br [Octabromodiphenyl ether] | > 90 µM |
| CC(=O)SCc1ccco1 [S-Furfuryl thioacetate] | > 90 µM |
| O=C(O)c1cc(Oc2ccc(C(F)(F)F)cc2Cl)ccc1[N+](=O)[O-] [Acifluorfen-sodium] | > 90 µM |

same assay, conditions: rat, gh3-tre-luc cells, AC50 (uM) modified / 1000, Tox21_110001=Tox21_112097; viability, 1 nM T3 present, 24 h

| SMILES | CC50 at 24 h |
| --- | --- |
| Oc1ccccc1-c1ccccc1 [Sodium 2-phenylphenate tetrahydrate] | > 50 µM |

same assay, conditions: rat, gh3-tre-luc cells, AC50 (uM) modified / 1000, Tox21_110001=Tox21_112821; viability, 1 nM T3 present, 24 h

| SMILES | CC50 at 24 h |
| --- | --- |
| CCCSc1cc(OC)c(CCN)cc1OC [2-[2,5-dimethoxy-4-(propylsulfanyl)phenyl]ethanamine hydrochloride] | 34.6 µM |

same assay, conditions: rat, gh3-tre-luc cells, AC50 (uM) modified / 1000, Tox21_110001=Tox21_112864; viability, 1 nM T3 present, 24 h

| SMILES | CC50 at 24 h |
| --- | --- |
| CCN[C@@H](C)Cc1cccc(C(F)(F)F)c1 [Dexfenfluramine hydrochloride] | > 90 µM |

same assay, conditions: rat, gh3-tre-luc cells, AC50 (uM) modified / 1000, Tox21_110001=Tox21_200102; viability, 1 nM T3 present, 24 h

| SMILES | CC50 at 24 h |
| --- | --- |
| BrCCc1ccccc1 [Phenethyl bromide] | > 90 µM |

same assay, conditions: rat, gh3-tre-luc cells, AC50 (uM) modified / 1000, Tox21_110001=Tox21_200357; viability, 1 nM T3 present, 24 h

| SMILES | CC50 at 24 h |
| --- | --- |
| C=C(Cl)Cl [1,1-Dichloroethylene] | > 100 µM |

same assay, conditions: rat, gh3-tre-luc cells, AC50 (uM) modified / 1000, Tox21_110001=Tox21_200693; viability, 1 nM T3 present, 24 h

| SMILES | CC50 at 24 h |
| --- | --- |
| Cn1c(N)nc2c3cccnc3ccc21 [2-Amino-3-methyl-3H-imidazo[4,5-f]quinoline] | 36.1 µM |

same assay, conditions: rat, gh3-tre-luc cells, AC50 (uM) modified / 1000, Tox21_110001=Tox21_301256; viability, 1 nM T3 present, 24 h

| SMILES | CC50 at 24 h |
| --- | --- |
| CC(=O)c1cc2c(cc1C)C(C)(C)C(C)CC2(C)C (stereo not shown) [6-Acetyl-1,1,2,4,4,7-hexamethyltetralin] | 45.6 µM |

same assay, conditions: rat, gh3-tre-luc cells, AC50 (uM) modified / 1000, Tox21_110001=Tox21_302104; viability, 1 nM T3 present, 24 h

| SMILES | CC50 at 24 h |
| --- | --- |
| C1CCC(C2CCCCC2)CC1 [Dicyclohexyl] | > 90 µM |
